Test system: PHH 2D sandwich cultures
Details: PHH 2D sandwich cultures, 100x Cmax; ref Xu 2008; cited from earlier work

SMILES | 2Dsw (Xu 2008) 100x
CN(Cc1cnc2nc(N)nc(N)c2n1)c1ccc(C(=O)N[C@@H](CCC(=O)O)C(=O)O)cc1 [Methotrexate] | Negative

Same assay, conditions: cited from earlier work

SMILES | 2Dsw (Xu 2008) 100x
CS(=O)(=O)Nc1ccc([N+](=O)[O-])cc1Oc1ccccc1 [Nimesulide] | Positive

Test system: clinical DILI in man
Details: DILI classification score; ref Guo et al. (2005); cited from earlier work

SMILES | Guo et al. (2005)
CN(Cc1cnc2nc(N)nc(N)c2n1)c1ccc(C(=O)N[C@@H](CCC(=O)O)C(=O)O)cc1 [Methotrexate] | 3

Same assay, conditions: DILI classification score; ref Suzuki et al. (2010); cited from earlier work

SMILES | Suzuki et al. (2010)
COc1ccccc1Oc1c(NS(=O)(=O)c2ccc(C(C)(C)C)cc2)nc(-c2ncccn2)nc1OCCO [Bosentan] | 1
CN(Cc1cnc2nc(N)nc(N)c2n1)c1ccc(C(=O)N[C@@H](CCC(=O)O)C(=O)O)cc1 [Methotrexate] | 1

Same assay, conditions: FDA drug labeling DILI concern; ref Chen et al., 2011; cited from earlier work

SMILES | FDA (Severity)
COc1ccccc1Oc1c(NS(=O)(=O)c2ccc(C(C)(C)C)cc2)nc(-c2ncccn2)nc1OCCO [Bosentan] | most DILI concern

Same assay, conditions: FDA drug labeling DILI score; ref Chen et al., 2011; cited from earlier work

SMILES | FDA (0-8)
COc1ccccc1Oc1c(NS(=O)(=O)c2ccc(C(C)(C)C)cc2)nc(-c2ncccn2)nc1OCCO [Bosentan] | 7
CN(Cc1cnc2nc(N)nc(N)c2n1)c1ccc(C(=O)N[C@@H](CCC(=O)O)C(=O)O)cc1 [Methotrexate] | 3

Same assay, conditions: clinical DILI classification in man (POS/NEG); cited from earlier work

SMILES | DILI in vivo
COc1ccccc1Oc1c(NS(=O)(=O)c2ccc(C(C)(C)C)cc2)nc(-c2ncccn2)nc1OCCO [Bosentan] | POS
C#CCN(C)Cc1ccccc1 [Pargyline] | NEG
CN(Cc1cnc2nc(N)nc(N)c2n1)c1ccc(C(=O)N[C@@H](CCC(=O)O)C(=O)O)cc1 [Methotrexate] | POS

Same assay, conditions: clinical DILI classification used in this study, Supplementary Table 2; ref Chen et al., 2011; Guo et al., 2005; O'Brien et al., 2006; Sakatis et al., 2012; Suzuki et al., 2010; Xu et al., 2008; cited from earlier work

SMILES | Classified as
COc1ccccc1Oc1c(NS(=O)(=O)c2ccc(C(C)(C)C)cc2)nc(-c2ncccn2)nc1OCCO [Bosentan] | POS
C#CCN(C)Cc1ccccc1 [Pargyline] | NEG
CN(Cc1cnc2nc(N)nc(N)c2n1)c1ccc(C(=O)N[C@@H](CCC(=O)O)C(=O)O)cc1 [Methotrexate] | POS

Same assay, conditions: clinical DILI classification, Supplementary Table 1; ref Chen et al., 2011; Guo et al., 2005; O'Brien et al., 2006; Sakatis et al., 2012; Suzuki et al., 2010; Xu et al., 2008; cited from earlier work

SMILES | DILI in vivo
COc1ccccc1Oc1c(NS(=O)(=O)c2ccc(C(C)(C)C)cc2)nc(-c2ncccn2)nc1OCCO [Bosentan] | POS
C#CCN(C)Cc1ccccc1 [Pargyline] | NEG
CN(Cc1cnc2nc(N)nc(N)c2n1)c1ccc(C(=O)N[C@@H](CCC(=O)O)C(=O)O)cc1 [Methotrexate] | POS

Same assay, conditions: clinical DILI classification; ref Xu et al. (2008); cited from earlier work

SMILES | Xu et al. (2008)
CN(Cc1cnc2nc(N)nc(N)c2n1)c1ccc(C(=O)N[C@@H](CCC(=O)O)C(=O)O)cc1 [Methotrexate] | Positive

Same assay, conditions: clinical hepatotoxicity classification; ref O'Brien et al. (2003); cited from earlier work

SMILES | O'Brien et al. (2003)
CN(Cc1cnc2nc(N)nc(N)c2n1)c1ccc(C(=O)N[C@@H](CCC(=O)O)C(=O)O)cc1 [Methotrexate] | Severely

Same assay, conditions: clinical hepatotoxicity classification; ref Sakatis et al. (2012); cited from earlier work

SMILES | Sakatis et al. (2012)
CN(Cc1cnc2nc(N)nc(N)c2n1)c1ccc(C(=O)N[C@@H](CCC(=O)O)C(=O)O)cc1 [Methotrexate] | Hepatotoxic

Same assay, conditions: in vivo; cited from earlier work

SMILES | Classified as | Clinical DILI class (panel heading of Figure 4) | DILI in vivo | FDA (0-8) | FDA (Severity) | O'Brien et al. (2003) | Sakatis et al. (2012) | Suzuki et al. (2010) | Type of DILI | Xu et al. (2008)
CS(=O)(=O)Nc1ccc([N+](=O)[O-])cc1Oc1ccccc1 [Nimesulide] | POS | Severe DILI | POS | Withdrawn | most DILI concern | Severely | Hepatotoxic | 3 | Hepatocellular injury or Cholestatic injury | Positive
CN(C)CCC(c1ccc(Cl)cc1)c1ccccn1 (stereo not drawn) [Chlorpheniramine] | NEG | DILI negative | NEG | 0 | – | – | – | – | Non-hepatotoxic | Positive
O=C1CN(/N=C/c2ccc([N+](=O)[O-])o2)C(=O)N1 [Nitrofurantoin] | POS | Severe DILI | POS | 8 | most DILI concern | Severely | Hepatotoxic | 2 | Hepatocellular injury or Autoimmune hepatitis | –
CC(C(=O)O)c1ccc2oc(-c3ccc(Cl)cc3)nc2c1 (stereo not drawn) [Benoxaprofen] | POS | Severe DILI | POS | Withdrawn | most DILI concern | – | – | 3 | Hepatocellular injury | –

Same assay, conditions: in vivo; cited from earlier work

SMILES | Guo et al. (2005) | association with idiopathic autoimmune hepatitis
O=C1CN(/N=C/c2ccc([N+](=O)[O-])o2)C(=O)N1 [Nitrofurantoin] | 3 | associated with cases of idiopathic autoimmune hepatitis

Same assay, conditions: reported pattern of liver damage, Supplementary Table 2; ref literature; cited from earlier work

SMILES | Type of DILI
COc1ccccc1Oc1c(NS(=O)(=O)c2ccc(C(C)(C)C)cc2)nc(-c2ncccn2)nc1OCCO [Bosentan] | Hepatocellular injury or Mixed hepatitis
C#CCN(C)Cc1ccccc1 [Pargyline] | Non-hepatotoxic
CN(Cc1cnc2nc(N)nc(N)c2n1)c1ccc(C(=O)N[C@@H](CCC(=O)O)C(=O)O)cc1 [Methotrexate] | Hepatocellular injury

Same assay, conditions: structural analogue pairs, Figure 5; ref Chen et al., 2011; Xu et al., 2008 and others; cited from earlier work

SMILES | Clinical DILI classification (Figure 5)
COc1ccccc1Oc1c(NS(=O)(=O)c2ccc(C(C)(C)C)cc2)nc(-c2ncccn2)nc1OCCO [Bosentan] | DILI positive

Test system: primary human hepatocytes (PHH) 3D spheroids
Details: not given

SMILES | Chemically defined spheroids (this study) 20x | hepatotoxicity evaluation in CD-spheroids
COc1ccccc1Oc1c(NS(=O)(=O)c2ccc(C(C)(C)C)cc2)nc(-c2ncccn2)nc1OCCO [Bosentan] | Positive | clearly detected bosentan-induced liver injury
CS(=O)(=O)Nc1ccc([N+](=O)[O-])cc1Oc1ccccc1 [Nimesulide] | Positive | –
CC(C(=O)O)c1ccc2oc(-c3ccc(Cl)cc3)nc2c1 (stereo not drawn) [Benoxaprofen] | Negative | –
C#CCN(C)Cc1ccccc1 [Pargyline] | Negative | –
CN(Cc1cnc2nc(N)nc(N)c2n1)c1ccc(C(=O)N[C@@H](CCC(=O)O)C(=O)O)cc1 [Methotrexate] | Positive | revealed the DILI liability

Same assay, conditions: human, 14 days

SMILES | hepatotoxicity evaluation in CD-spheroids
CN(Cc1cnc2nc(N)nc(N)c2n1)c1ccc(C(=O)N[C@@H](CCC(=O)O)C(=O)O)cc1 [Methotrexate] | clearly detected already at 1× cmax exposure levels

Test system: not given
Details: therapeutic total cmax; ref PMID; cited from earlier work

SMILES | Cmax [µM]
CS(=O)(=O)Nc1ccc([N+](=O)[O-])cc1Oc1ccccc1 [Nimesulide] | 21.1
O=C1CN(/N=C/c2ccc([N+](=O)[O-])o2)C(=O)N1 [Nitrofurantoin] | 21
CC(C(=O)O)c1ccc2oc(-c3ccc(Cl)cc3)nc2c1 (stereo not drawn) [Benoxaprofen] | 33.1
C#CCN(C)Cc1ccccc1 [Pargyline] | 0.82

Test system: PHH spheroids (hanging-drop)
Details: 100× cmax, 2 weeks; ref Proctor et al., 2017; cited from earlier work

SMILES | hepatotoxicity classification in hanging-drop PHH spheroids
CN(Cc1cnc2nc(N)nc(N)c2n1)c1ccc(C(=O)N[C@@H](CCC(=O)O)C(=O)O)cc1 [Methotrexate] | previously missed

Same assay, conditions: PHH hanging-drop spheroids, 100x Cmax; ref Proctor 2017; cited from earlier work

SMILES | Hanging-drop spheroids (Proctor 2017) 100x
COc1ccccc1Oc1c(NS(=O)(=O)c2ccc(C(C)(C)C)cc2)nc(-c2ncccn2)nc1OCCO [Bosentan] | Positive
CN(C)CCC(c1ccc(Cl)cc1)c1ccccn1 (stereo not drawn) [Chlorpheniramine] | Negative
O=C1CN(/N=C/c2ccc([N+](=O)[O-])o2)C(=O)N1 [Nitrofurantoin] | Positive
CC(C(=O)O)c1ccc2oc(-c3ccc(Cl)cc3)nc2c1 (stereo not drawn) [Benoxaprofen] | Negative
C#CCN(C)Cc1ccccc1 [Pargyline] | Negative
CN(Cc1cnc2nc(N)nc(N)c2n1)c1ccc(C(=O)N[C@@H](CCC(=O)O)C(=O)O)cc1 [Methotrexate] | Negative

Same assay, conditions: cited from earlier work

SMILES | Hanging-drop spheroids (Proctor 2017) 100x
CS(=O)(=O)Nc1ccc([N+](=O)[O-])cc1Oc1ccccc1 [Nimesulide] | Positive

Test system: not given
Details: ref DrugBank and Prescribers' Digital Reference database; cited from earlier work

SMILES | Extent of hepatic metabolism
COc1ccccc1Oc1c(NS(=O)(=O)c2ccc(C(C)(C)C)cc2)nc(-c2ncccn2)nc1OCCO [Bosentan] | Extensive
CN(C)CCC(c1ccc(Cl)cc1)c1ccccn1 (stereo not drawn) [Chlorpheniramine] | Extensive
O=C1CN(/N=C/c2ccc([N+](=O)[O-])o2)C(=O)N1 [Nitrofurantoin] | Minimal
CC(C(=O)O)c1ccc2oc(-c3ccc(Cl)cc3)nc2c1 (stereo not drawn) [Benoxaprofen] | Moderate
C#CCN(C)Cc1ccccc1 [Pargyline] | Moderate
CN(Cc1cnc2nc(N)nc(N)c2n1)c1ccc(C(=O)N[C@@H](CCC(=O)O)C(=O)O)cc1 [Methotrexate] | Moderate

Reference: article PMC5974779, “Prediction of Drug-Induced Hepatotoxicity Using Long-Term Stable Primary Hepatic 3D Spheroid Cultures in Chemically Defined Conditions” (Toxicological Sciences, 2018)
